From paper PMC5218480 (PLoS ONE, 2017)

Test system: MV-4-11 cells
Experiment: Gene expression microarray analysis (Affymetrix PrimeView) and GSEA
Assay type: cell-based, human
Parameters: RFU PODN (11730768_x_at) / Fold change /veh PODN (11730768_x_at) / RFU LINC00158 (11744669_a_at) / Fold change /veh LINC00158 (11744669_a_at) / RFU DUSP10 (11751237_a_at) / Fold change /veh DUSP10 (11751237_a_at) / RFU ID3 (11757404_x_at) / Fold change /veh ID3 (11757404_x_at) / RFU PLEKHG5 (11737974_s_at) / Fold change /veh PLEKHG5 (11737974_s_at) / RFU LRRC4B (11730491_at) / Fold change /veh LRRC4B (11730491_at) / RFU GIMAP4 (11747438_a_at) / Fold change /veh GIMAP4 (11747438_a_at) / RFU KRT8 (11758183_x_at) / Fold change /veh KRT8 (11758183_x_at) / RFU CNN1 (11734310_a_at) / Fold change /veh CNN1 (11734310_a_at) / RFU VPS37D (11726825_at) / Fold change /veh VPS37D (11726825_at) / RFU C10orf10 (11716522_x_at) / Fold change /veh C10orf10 (11716522_x_at) / RFU KIR2DL2 /// KIR2DL4 /// KIR2DL5A /// KIR2DL5B /// KIR2DS1 /// KIR2DS2 /// KIR2DS3 /// KIR2DS4 /// KIR3DL3 /// KIR3DL3 /// KIR3DS1 (11738374_at) / Fold change /veh KIR2DL2 /// KIR2DL4 /// KIR2DL5A /// KIR2DL5B /// KIR2DS1 /// KIR2DS2 /// KIR2DS3 /// KIR2DS4 /// KIR3DL3 /// KIR3DL3 /// KIR3DS1 (11738374_at) / RFU C1QL1 (11718748_at) / Fold change /veh C1QL1 (11718748_at) / RFU TMPRSS4 (11747572_a_at) / Fold change /veh TMPRSS4 (11747572_a_at) / RFU HAMP (11756126_x_at) / Fold change /veh HAMP (11756126_x_at) / RFU RNFT2 (11725882_a_at) / Fold change /veh RNFT2 (11725882_a_at) / RFU NR4A2 (11747474_a_at) / Fold change /veh NR4A2 (11747474_a_at) / RFU ABCC12 (11746883_a_at) / Fold change /veh ABCC12 (11746883_a_at) / RFU TMEM136 (11760407_x_at) / Fold change /veh TMEM136 (11760407_x_at) / RFU CLDN22 /// WWC2 (11732394_at) / Fold change /veh CLDN22 /// WWC2 (11732394_at) / RFU HLA-DPB1 (11760878_x_at) / Fold change /veh HLA-DPB1 (11760878_x_at) / RFU SPINT1 (11716480_a_at) / Fold change /veh SPINT1 (11716480_a_at) / RFU GAP43 (11754022_s_at) / Fold change /veh GAP43 (11754022_s_at) / RFU A4GNT (11735810_at) / Fold change /veh A4GNT (11735810_at) / RFU PRB3 (11715151_x_at) / Fold change /veh PRB3 (11715151_x_at) / RFU TUBB4B (11761932_at) / Fold change /veh TUBB4B (11761932_at) / RFU CAPN14 (11732068_a_at) / Fold change /veh CAPN14 (11732068_a_at) / RFU TMCC2 (11721928_a_at) / Fold change /veh TMCC2 (11721928_a_at) / RFU IRGQ (11745062_a_at) / Fold change /veh IRGQ (11745062_a_at) / RFU FAM174B (11720279_a_at) / Fold change /veh FAM174B (11720279_a_at) / RFU TMPRSS4 (11748680_a_at) / Fold change /veh TMPRSS4 (11748680_a_at) / RFU FAM212B (11763350_a_at) / Fold change /veh FAM212B (11763350_a_at) / RFU PLEKHG5 (11743358_a_at) / Fold change /veh PLEKHG5 (11743358_a_at) / RFU ZSCAN30 (11745921_a_at) / Fold change /veh ZSCAN30 (11745921_a_at) / RFU CMKLR1 (11741424_a_at) / Fold change /veh CMKLR1 (11741424_a_at) / RFU LOC101060620 /// MAPK8IP1 (11723275_at) / Fold change /veh LOC101060620 /// MAPK8IP1 (11723275_at) / RFU SPTSSB (11747773_x_at) / Fold change /veh SPTSSB (11747773_x_at) / RFU PRSS12 (11739890_at) / Fold change /veh PRSS12 (11739890_at) / RFU BIN1 (11741810_x_at) / Fold change /veh BIN1 (11741810_x_at) / RFU WNT11 (11732464_a_at) / Fold change /veh WNT11 (11732464_a_at) / RFU C10orf10 (11716521_a_at) / Fold change /veh C10orf10 (11716521_a_at) / RFU C5orf56 (11738089_at) / Fold change /veh C5orf56 (11738089_at) / RFU CYB561 (11721691_x_at) / Fold change /veh CYB561 (11721691_x_at) / RFU ANKRD19P (11752326_a_at) / Fold change /veh ANKRD19P (11752326_a_at) / RFU OR2T12 /// OR2T33 /// OR2T8 (11738714_s_at) / Fold change /veh OR2T12 /// OR2T33 /// OR2T8 (11738714_s_at) / RFU VCAN (11748164_a_at) / Fold change /veh VCAN (11748164_a_at) / RFU JSRP1 (11732532_at) / Fold change /veh JSRP1 (11732532_at) / RFU KRTAP10-11 (11738290_x_at) / Fold change /veh KRTAP10-11 (11738290_x_at) / RFU MYO3A (11730013_a_at) / Fold change /veh MYO3A (11730013_a_at) / RFU EBF3 (11725865_a_at) / Fold change /veh EBF3 (11725865_a_at) / RFU CAMK2N1 (11719241_x_at) / Fold change /veh CAMK2N1 (11719241_x_at) / RFU C5orf56 (11738088_a_at) / Fold change /veh C5orf56 (11738088_a_at) / RFU OLFML3 (11715873_a_at) / Fold change /veh OLFML3 (11715873_a_at) / RFU LOC100653217 /// NTM (11731650_a_at) / Fold change /veh LOC100653217 /// NTM (11731650_a_at) / RFU MAPK11 (11762145_a_at) / Fold change /veh MAPK11 (11762145_a_at) / RFU FIZ1 (11724087_x_at) / Fold change /veh FIZ1 (11724087_x_at) / RFU OASL (11726364_x_at) / Fold change /veh OASL (11726364_x_at) / RFU SOX15 (11748057_x_at) / Fold change /veh SOX15 (11748057_x_at) / RFU CD79A (11719716_a_at) / Fold change /veh CD79A (11719716_a_at) / RFU HIST1H1D (11736915_at) / Fold change /veh HIST1H1D (11736915_at) / RFU CASKIN2 (11723855_a_at) / Fold change /veh CASKIN2 (11723855_a_at) / RFU LOC730098 (11760151_x_at) / Fold change /veh LOC730098 (11760151_x_at) / RFU OR4N2 (11742367_at) / Fold change /veh OR4N2 (11742367_at) / RFU PRRT2 (11749266_a_at) / Fold change /veh PRRT2 (11749266_a_at) / RFU SNX32 (11753110_a_at) / Fold change /veh SNX32 (11753110_a_at) / RFU CDHR5 (11726645_a_at) / Fold change /veh CDHR5 (11726645_a_at) / RFU RCAN1 (11760418_a_at) / Fold change /veh RCAN1 (11760418_a_at) / RFU FAM167A (11723789_a_at) / Fold change /veh FAM167A (11723789_a_at) / RFU FAM26E (11764081_at) / Fold change /veh FAM26E (11764081_at) / RFU ISYNA1 (11749810_s_at) / Fold change /veh ISYNA1 (11749810_s_at) / RFU ACY1 (11761880_at) / Fold change /veh ACY1 (11761880_at) / RFU 11764098_at / Fold change /veh 11764098_at / RFU SAMD14 (11745864_x_at) / Fold change /veh SAMD14 (11745864_x_at) / RFU NPB (11741838_a_at) / Fold change /veh NPB (11741838_a_at) / RFU TMPRSS6 (11731388_a_at) / Fold change /veh TMPRSS6 (11731388_a_at) / RFU KRTAP10-2 (11738614_at) / Fold change /veh KRTAP10-2 (11738614_at) / RFU ARHGAP8 /// PRR5-ARHGAP8 (11727945_x_at) / Fold change /veh ARHGAP8 /// PRR5-ARHGAP8 (11727945_x_at) / RFU KRTAP5-7 /// NADSYN1 (11734609_at) / Fold change /veh KRTAP5-7 /// NADSYN1 (11734609_at) / RFU RASL12 (11751679_a_at) / Fold change /veh RASL12 (11751679_a_at) / RFU CDKN2B (11736163_a_at) / Fold change /veh CDKN2B (11736163_a_at) / RFU PRF1 (11729649_at) / Fold change /veh PRF1 (11729649_at) / RFU, ZNF638 /// ZNF638-IT1 / Fold change vs veh, ZNF638 /// ZNF638-IT1 / RFU, PANK3 / Fold change vs veh, PANK3 / RFU, SH3YL1 / Fold change vs veh, SH3YL1 / RFU, ZEB2 / Fold change vs veh, ZEB2 / RFU, NRIP1 / Fold change vs veh, NRIP1 / RFU, PTTG1IP / Fold change vs veh, PTTG1IP / RFU, CAPN2 / Fold change vs veh, CAPN2 / RFU, MED14 / Fold change vs veh, MED14 / RFU, SNORA58 / Fold change vs veh, SNORA58 / RFU, C1orf63 / Fold change vs veh, C1orf63 / RFU, LRRFIP1 / Fold change vs veh, LRRFIP1 / RFU, NDUFAF7 / Fold change vs veh, NDUFAF7 / RFU, SLC12A2 / Fold change vs veh, SLC12A2 / RFU, IBTK / Fold change vs veh, IBTK / RFU, ESF1 / Fold change vs veh, ESF1 / Fold change vs veh, TMEM50B / RFU, TAOK1 / Fold change vs veh, TAOK1 / RFU, ACBD3 / Fold change vs veh, ACBD3 / RFU, TMA16 / Fold change vs veh, TMA16 / RFU, RWDD3 / Fold change vs veh, RWDD3 / RFU, BCAT1 / Fold change vs veh, BCAT1 / RFU, EDEM3 / Fold change vs veh, EDEM3 / RFU, TMEM33 / Fold change vs veh, TMEM33 / RFU, WDR75 / Fold change vs veh, WDR75 / RFU, AHCTF1 / Fold change vs veh, AHCTF1 / RFU, TFRC / Fold change vs veh, TFRC / RFU, ZDHHC17 / Fold change vs veh, ZDHHC17 / RFU, NOM1 / Fold change vs veh, NOM1 / RFU, ARL8B / Fold change vs veh, ARL8B / RFU, ZBTB11 / Fold change vs veh, ZBTB11 / RFU, TAMM41 / Fold change vs veh, TAMM41 / RFU, KIAA1704 /// LOC100996395 / Fold change vs veh, KIAA1704 /// LOC100996395 / RFU, ING1 / Fold change vs veh, ING1 / RFU, TRMT61B / Fold change vs veh, TRMT61B / RFU, FUBP3 / Fold change vs veh, FUBP3 / RFU, TP53 / Fold change vs veh, TP53 / RFU, TNKS2 / Fold change vs veh, TNKS2 / RFU, ZFP14 / Fold change vs veh, ZFP14 / RFU, ACTR2 / Fold change vs veh, ACTR2 / RFU, PPP3R1 / Fold change vs veh, PPP3R1 / RFU, PIK3R1 / Fold change vs veh, PIK3R1 / RFU, HNRNPA1 / Fold change vs veh, HNRNPA1 / RFU, RNF170 / Fold change vs veh, RNF170 / RFU, ZNF28 / Fold change vs veh, ZNF28 / RFU, RNGTT / Fold change vs veh, RNGTT / RFU, OGT / Fold change vs veh, OGT / RFU, BRD1 / Fold change vs veh, BRD1 / RFU, MARS / Fold change vs veh, MARS / RFU, ZNF655 / Fold change vs veh, ZNF655 / RFU, FAHD1 / Fold change vs veh, FAHD1 / RFU, BDP1 / Fold change vs veh, BDP1 / RFU, LRRCC1 / Fold change vs veh, LRRCC1 / RFU, ARID1A / Fold change vs veh, ARID1A / RFU, ZNF146 / Fold change vs veh, ZNF146 / RFU, ZNF330 / Fold change vs veh, ZNF330 / RFU, GPN3 / Fold change vs veh, GPN3 / RFU, C9orf123 / Fold change vs veh, C9orf123 / RFU, N4BP2L2 / Fold change vs veh, N4BP2L2 / RFU, ARFIP1 / Fold change vs veh, ARFIP1 / RFU, FAM179B / Fold change vs veh, FAM179B / RFU, BCL10 / Fold change vs veh, BCL10 / RFU, UHRF1BP1L / Fold change vs veh, UHRF1BP1L / RFU, BET1 / Fold change vs veh, BET1 / RFU, CNOT2 / Fold change vs veh, CNOT2 / RFU, ZNF268 / Fold change vs veh, ZNF268 / Fold change vs veh, ZNF507 / RFU, DGCR2 / Fold change vs veh, DGCR2 / RFU, WDSUB1 / Fold change vs veh, WDSUB1 / Fold change vs veh, HSP90B1 /// MIR3652 / RFU, ADSS / Fold change vs veh, ADSS / RFU, GK / Fold change vs veh, GK / RFU, ZNF148 / Fold change vs veh, ZNF148 / RFU, TAF9 / Fold change vs veh, TAF9 / RFU, SLC1A5 / Fold change vs veh, SLC1A5 / RFU, SLMO2 / Fold change vs veh, SLMO2 / RFU, ABCC4 / Fold change vs veh, ABCC4 / RFU, LOC101060439 /// RAP1B / Fold change vs veh, LOC101060439 /// RAP1B / RFU, RFX7 / Fold change vs veh, RFX7 / RFU, GTPBP10 / Fold change vs veh, GTPBP10 / RFU, CNEP1R1 / Fold change vs veh, CNEP1R1 / RFU, BIVM-ERCC5 /// ERCC5 / Fold change vs veh, BIVM-ERCC5 /// ERCC5 / RFU, ILF3 / Fold change vs veh, ILF3 / RFU 11762660_at / Fold change /veh 11762660_at / RFU VCAN (11757783_s_at) / Fold change /veh VCAN (11757783_s_at) / RFU DDX43 (11728927_at) / Fold change /veh DDX43 (11728927_at) / RFU KRT8 (11758188_x_at) / Fold change /veh KRT8 (11758188_x_at) / RFU NKD1 (11759106_at) / Fold change /veh NKD1 (11759106_at) / RFU SRD5A1 (11742802_a_at) / Fold change /veh SRD5A1 (11742802_a_at) / RFU TPSAB1 /// TPSB2 (11721975_s_at) / Fold change /veh TPSAB1 /// TPSB2 (11721975_s_at) / RFU GSTM3 (11746129_a_at) / Fold change /veh GSTM3 (11746129_a_at) / RFU IL23R (11737362_x_at) / Fold change /veh IL23R (11737362_x_at) / RFU TMEM51 (11727254_a_at) / Fold change /veh TMEM51 (11727254_a_at) / RFU PIWIL2 (11732686_x_at) / Fold change /veh PIWIL2 (11732686_x_at) / RFU ORM1 (11744905_x_at) / Fold change /veh ORM1 (11744905_x_at) / RFU CCDC152 (11743942_at) / Fold change /veh CCDC152 (11743942_at) / RFU ECM1 (11717891_a_at) / Fold change /veh ECM1 (11717891_a_at) / RFU IL23R (11748794_a_at) / Fold change /veh IL23R (11748794_a_at) / RFU TNFAIP8L3 (11732012_x_at) / Fold change /veh TNFAIP8L3 (11732012_x_at) / RFU MBOAT4 (11741988_at) / Fold change /veh MBOAT4 (11741988_at) / RFU 11764193_at / Fold change /veh 11764193_at / RFU TMEM53 (11763286_at) / Fold change /veh TMEM53 (11763286_at) / RFU MAGEB2 (11727129_at) / Fold change /veh MAGEB2 (11727129_at) / RFU TMEM200A (11744735_a_at) / Fold change /veh TMEM200A (11744735_a_at) / RFU CCDC152 (11751479_a_at) / Fold change /veh CCDC152 (11751479_a_at) / RFU FAM211A (11726209_a_at) / Fold change /veh FAM211A (11726209_a_at) / RFU RGS16 (11746705_a_at) / Fold change /veh RGS16 (11746705_a_at) / RFU VCAN (11755009_s_at) / Fold change /veh VCAN (11755009_s_at) / RFU RHOB (11743442_s_at) / Fold change /veh RHOB (11743442_s_at) / RFU RGS16 (11720943_a_at) / Fold change /veh RGS16 (11720943_a_at) / RFU RGS16 (11720944_at) / Fold change /veh RGS16 (11720944_at) / RFU, VPS4B / Fold change vs veh, VPS4B / RFU, CREB1 / Fold change vs veh, CREB1 / RFU, DNAJC13 / Fold change vs veh, DNAJC13 / RFU, GNAQ / Fold change vs veh, GNAQ / RFU, CDK5R1 / Fold change vs veh, CDK5R1 / RFU, ZRANB3 / Fold change vs veh, ZRANB3 / RFU, CUL4A / Fold change vs veh, CUL4A / RFU, CCNY / Fold change vs veh, CCNY / RFU, UFL1 / Fold change vs veh, UFL1 / RFU, COG3 / Fold change vs veh, COG3 / RFU, DIAPH2 / Fold change vs veh, DIAPH2 / RFU, SKA2 / Fold change vs veh, SKA2 / RFU, AFF3 / Fold change vs veh, AFF3 / RFU, LMF1 / Fold change vs veh, LMF1 / RFU, IPO11 / Fold change vs veh, IPO11 / RFU, DFFB / Fold change vs veh, DFFB / RFU, FOXP1 / Fold change vs veh, FOXP1 / RFU, CARD8 / Fold change vs veh, CARD8 / RFU, STRN3 / Fold change vs veh, STRN3 / RFU, ADK / Fold change vs veh, ADK / RFU, RASSF2 / Fold change vs veh, RASSF2 / RFU, WIPF1 / Fold change vs veh, WIPF1 / RFU, LARP1B / Fold change vs veh, LARP1B / RFU, RASA1 / Fold change vs veh, RASA1 / RFU, RB1 / Fold change vs veh, RB1 / RFU, PPFIA1 / Fold change vs veh, PPFIA1 / RFU, MAT2A / Fold change vs veh, MAT2A / RFU, CCT5 / Fold change vs veh, CCT5 / RFU, WDR92 / Fold change vs veh, WDR92 / RFU, CUX1 / Fold change vs veh, CUX1 / RFU, TTC7A / Fold change vs veh, TTC7A / RFU, TMEM135 / Fold change vs veh, TMEM135 / RFU, DEPTOR / Fold change vs veh, DEPTOR / RFU, CPM / Fold change vs veh, CPM / RFU, DNAJB6 / Fold change vs veh, DNAJB6 / RFU, CACNA2D3 / Fold change vs veh, CACNA2D3 / RFU, DTX4 / Fold change vs veh, DTX4 / RFU, TFCP2 / Fold change vs veh, TFCP2 / RFU, GMCL1 /// GMCL1P1 / Fold change vs veh, GMCL1 /// GMCL1P1 / RFU, AEBP2 / Fold change vs veh, AEBP2 / RFU, SNHG1 /// SNORD22 /// SNORD25 /// SNORD26 /// SNORD27 /// SNORD28 /// SNORD29 /// SNORD31 / Fold change vs veh, SNHG1 /// SNORD22 /// SNORD25 /// SNORD26 /// SNORD27 /// SNORD28 /// SNORD29 /// SNORD31 / Fold change (Aza/veh), C12orf56 (ProbeSet 11735607_a_at) / Fold change (ACY-1035/veh), C12orf56 (ProbeSet 11735607_a_at) / Fold change (Aza/veh), FGFR1OP (ProbeSet 11751329_s_at) / Fold change (ACY-1035/veh), FGFR1OP (ProbeSet 11751329_s_at) / Fold change (Aza/veh), VPS36 (ProbeSet 11739960_a_at) / Fold change (ACY-1035/veh), VPS36 (ProbeSet 11739960_a_at) / RFU SYPL1 (11715823_x_at) / Fold change /veh SYPL1 (11715823_x_at) / RFU IGFBP7 (11715501_s_at) / Fold change /veh IGFBP7 (11715501_s_at) / RFU REEP3 (11722064_at) / Fold change /veh REEP3 (11722064_at) / RFU IGLL1 (11728026_x_at) / Fold change /veh IGLL1 (11728026_x_at): dose or concentration left out as unconfirmed
Conditions: MV-4-11 cells, 48 hours

SMILES: Nc1ncn([C@@H]2O[C@H](CO)[C@@H](O)[C@H]2O)c(=O)n1 [azacitidine]
- Fold change /veh TMPRSS6 (11731388_a_at): 1.02
